Measured values as given in US9181375B2, “Fluorescent potassium ion sensors” (ARIZONA BOARD OF REGENTS, A BODY CORPORATE OF THE STATE OF …, priority 2011, dated 2015).

Key:
[1] = Fluorescence response of sensors to other cations and pH in buffer (selectivity)
Procedure: (§1) To determine sensor responses, 50 μL of 2(a) (Example 10) was dissolved in DMSO resulting in a concentration of 200 μM which was then added into 2 mL of HEPES (10 mM, pH 7.2) buffer. […] Different metal ion concentrations were added into the solution for studying 2(a)'s responses. Although the reaction of the compound and the metal ion was rapid (usually within seconds), the spectra was measured after 2 minutes to ensure stability. 2(a)/metal ion complexes were excited at 561 nm and emissions were collected from 600 to 750 nm.
2(a) was also tested against physiological concentration levels of the following metal ions: K^+, Na^+, Ca^2+, Mg^2+, Fe^3+, Zn^2+, Mn^2+, and Cu^2+. […] Furthermore, this trend was also present when the concentrations of Na^+, Ca^2+, and Mg^2+ were increased to 140 mM (FIG. 9).
Na^+ is usually an interference ion to K^+ for the typical K^+ probes including PBFI, CD18, C18, and MCC.

CP-A cells [2] = test: Cytotoxicity by Trypan blue staining; assay type: cell-based; details: 1(a) internalized for 30 minutes
Procedure: (§2) Cytotoxicity of the sensor 1(a) to cells was studied using Trypan blue staining. After 30 minutes internalization of the sensor with cells, more than 97% cells were viable, showing the non-cytotoxicity of 1(a) to the two cell lines under our experimental conditions.

[3] = Fluorescence titration of 1(a) with KCl in HEPES buffer, Benesi-Hildebrand plot; assay type: binding; details: 10 mM HEPES pH 7.4, excitation 450 nm, emission 525 nm
Procedure: FIGS. 17A and 17B show the UV-Vis and emission spectral changes upon the interaction of 1(a) with potassium chloride (KCl) in 10 mM HEPES buffer (pH 7.4). […] This fluorescence change was attributed to photo-induced electron transfer. The lone electron pairs of the amino groups in the triazacryptand ligand quench the emission of the fluorophore of the amino-naphthalimide through PET. After interaction with K^+, the lone electron pairs of the ligand were occupied due to the formation of the ligand-K^+ complex. This change restores the emission of the amino-naphthalimide fluorophore. Fluorescence intensity change at 525 nm was plotted again K^+ concentration, which is illustrated in FIG. 17C. Binding constant K could be determined by the fluorescence spectral change using the Benesi-Hildebrand equation as described above.
Curve fitting of the fluorescence intensity of 1(a) against the reciprocal of the K^+ concentration (1/[K^+]), the Benesi-Hildebrand plot, gives a linear fit (FIG. 17D).

U87MG cells [4] = test: Cytotoxicity by Trypan blue staining; assay type: cell-based
Procedure: Cytotoxicity of 2(a) to human glioblastoma U87MG cells was studied using Trypan blue staining. To cell culture medium (100 μL) with eukaryotic cells in a 96 well microplate with 10,000 cells/well that had internalized 2(a) for 2 hours, […] of 0.4% Trypan Blue stain was added and mixed thoroughly with the medium. After standing for 5 min at room temperature (23° C.), the cells were imaged using an optical microscope in bright field mode. Dead cells appeared blue from the Trypan Blue stain, whereas healthy cells appeared transparent as a result of the cell's resistance to stain. The cells were then counted and the ratio of dead cells to live cells was calculated. Each experiment was repeated three times.
as §2

[5] = Fluorescence quantum yield against Rhodamine B standard; assay type: physicochemical
Procedure: The fluorescence quantum yields (η) of samples in solutions were recorded by using Rhodamine B in ethanol (η=0.65) excited at 540 nm and were calculated according to the following equation:
[formula] where (ηr) and (ηs) are the fluorescence quantum yields of standards and the samples, respectively. Ar and As are the absorbance of the standards and the measured samples at the excitation wavelength, respectively. Ir and Is are the integrated emission intensities of standards and the samples, respectively. nr and ns are the refractive indices of the corresponding solvents present in the solutions, respectively. The experimental error was approximately 10%.

[6] = Fluorescence titration of 2(a) with KCl in HEPES buffer, Benesi-Hildebrand plot; assay type: binding; details: HEPES pH 7.2
Procedure: as §1
2(a) is constructed using strong electron-donating (aniline) and electron-withdrawing (TCF) groups, yielding an absorption maximum at 560 nm. The extinction coefficient (s) at 560 nm is 3.84×10^4 M^−1 cm^−1. […] Upon addition of K^+, the fluorescence intensity of 2(a) increases by ca. 4 and 50 fold at K^+ concentrations of 140 mM and 1400 mM (FIGS. 8A and 8B), respectively, resulting in corresponding η of 0.52% and 5.6%. Kd was determined by the Benesi-Hildebrand equation: F0/(F0−F)=F0/(F0−Fcomplex)+F0/(F0−Fcomplex)×Kd×1/[M] (1) where F0 is the integrated fluorescence intensity of a free sensor, F is the observed integrated fluorescence intensity, Fcomplex is the emission of the ligand-metal ion complex, and [M] is the metal ion concentration. When F0/(F0−F) is plotted against 1/[M], the binding constant is given by the ratio intercept/slope. […]

U87MG cells [7] = test: Intracellular K+ influx monitored with 2(a), confocal fluorescence, ImageJ; assay type: cell-based, human; details: isoproterenol 5 μM with 20 mM KCl in medium, 40 minutes, 37° C.; 2(a) 4 μM
Procedure: 2(a) can also be used to monitor K^+ influx through stimuli. […] The influx stimulator (isoproterenol in KCl-containing PBS buffer) was added. Final concentrations of the added isoproterenol and KCl in the cell culture medium were 5 μM and 20 mM, respectively.

U87MG cells [8] = test: Intracellular K+ efflux monitored with 1(a), microplate reader; assay type: cell-based, human; details: cells loaded with 2 μM 1(a); nigericin 5 μM, bumetanide 10 μM, ouabain 10 μM; 2.5 h
Procedure: (§6) U87MG and CP-A cells were seeded onto 96 well plates at 10,000 cells per well and maintained in 100 μL medium overnight. The following day, the cells were loaded with 1(a) (2 μM) for 20 min, then the excess 1(a) was removed by washing with medium. The test substances were added and the experiment was terminated after 2.5 h by washing the cells with physiological NaCl solution. A microplate reader (Molecular Device, Downingtown, Pa.) was used to read the fluorescence intensities from the intracellular 1(a). 444 nm was used to excite the sensor and the emission was measured at 538 nm. The measured fluorescence intensities were corrected with background fluorescence. Each experiment was repeated in triplicate.
(§7) The decrease of the fluorescence intensities indicates the efflux of the intracellular potassium ions from the cells.

U87MG cells [9] = test: Dynamic K+ influx and efflux monitored with 2(a) after nigericin; assay type: cell-based, human; details: nigericin 20 μM in 20 mM KCl medium
Procedure: 2(a) was further tested for in-situ observation of dynamic potassium ion influx and then efflux through the changes of fluorescence (FIG. 15) stimulated by an ionophore nigericin. Cells internalized with 4 μM of 2(a) at 37° C. for 10 minutes were washed with 20 mM KCl-containing fresh medium. Nigericin (20 μM at its final concentration) was added in 20 mM KCl-containing medium to help K^+ to across cell membrane. Enhanced fluorescence was immediately observed after the addition of nigericin, indicating potassium ion influx occurred. The potassium influx peaked after 3 minutes with an average of fluorescence increase of 370%. After 3 minutes, potassium efflux was observed by the decrease of the fluorescence. The efflux stabilized after 15 minutes, and the fluorescence intensity after the stabilization was about 25% below that of before the stimulation by nigericin. The ionophore nigericin was used to stimulate K^+ influx for yeast Saccharomyces cerevisiae. It was also reported to be a K^+ efflux stimulator for human colorectal adenocarcinoma HT-29 cells.

CP-A cells [10] = test: Intracellular K+ efflux monitored with 1(a), microplate reader; assay type: cell-based; details: cells loaded with 2 μM 1(a); nigericin 5 μM, bumetanide 10 μM, ouabain 10 μM; 2.5 h
Procedure: as §6, §7

B. subtilis = test: K+ release from bacteria stimulated by lysozyme, measured with F4 film; assay type: cell-based, B. subtilis 168; details: lysozyme added to bacteria in 150 mM NaCl buffer pH 7.4, F4 film
Procedure: (§3) E. coli JM 109 and B. subtilis 168 were cultured overnight in LB medium (Difco®, Becton, Dickinson and Company, Sparks, Md.) by shaking at 180 rpm at 37° C. The concentration of E. coli and B. subtilis in culture was estimated by measuring the optical density at 600 nm (OD600). OD600 value of 1 indicated a concentration of 5.0×10^8 cfu/mL. After the microorganism density was determined, bacterial cells were collected by centrifuge at 2000×g for 20 minutes at room temperature. Then appropriate densities of bacteria were made using fresh buffer (150 mM NaCl, pH 7.4) to achieve the desired initial concentrations for experiments.
(§4) The F4 film (Example 16) was placed diagonally into quartz cuvettes with 2 mL of bacteria suspension at different densities. […] The potassium ion concentration was calculated from the measured fluorescence ratio (F/F0).
(§5) F4 film was used for both gram positive (i.e. B. subtilis) and negative (i.e. E. coli) bacteria and lysozyme was used as a model drug to stimulate K^+ efflux from the organisms. […] The washed organisms were resuspended in 2 mL of the potassium-free buffer in quartz cuvettes at a concentration range of 1.5×10^10 to 1.0×10^11 cfu/mL F4 was immersed into the above prepared mixtures, and then lysozyme was added into the cuvettes to stimulate the K^+ efflux, which was monitored through the time dependent fluorescence intensity changes of F4 film. […]

E. coli = test: as above; assay type: cell-based, E. coli JM 109; details: lysozyme added to bacteria in 150 mM NaCl buffer pH 7.4, F4 film
Procedure: as §3, §4, §5

With C=CCN1C(=O)c2cccc3c(NCCc4ccc(N5CCOc6cc(C)ccc6N6CCOCCOCCN(CCOCCOCC6)c6ccc(C)cc6OCC5)c(OCCOC)c4)ccc(c23)C1=O [1(a)] the “selectivity against biologically relevant metal ions” value ([1]; 1(a), Na^+, Ca^2+, Mg^2+, Fe^3+, Zn^2+, Mn^2+, Cu^2+ at physiological concentrations (FIG. 17E)) was “high selectivity”, the viable cells (CP-A cells [2]) was “more than 97%” and the “binding constant (K)” value [3] was 0.133 mM⁻¹. For the same compound, the viable cells (U87MG cells [4]; 1(a) internalized for 30 minutes, Trypan blue) was “more than 97%”.
In the case of COCCOc1cc(/C=C/C2=C(C#N)C(=C(C#N)C#N)OC2(C)C)ccc1N1CCOc2cc(C)ccc2N2CCOCCOCCN(CCOCCOCC2)c2ccc(C)cc2OCC1 [2(a)], the “selectivity to K^+ against other metal ions” value ([1]; Na^+, Ca^2+, Mg^2+, Fe^3+, Zn^2+, Mn^2+, Cu^2+ at physiological levels, Na^+, Ca^2+, Mg^2+ also at 140 mM) is reported as “high selectivity”, the “sensitivity to pH” value ([1]; pH 5 to 8) is reported as “not sensitive to pH in the range of 5 to 8” and the “quantum yield (η)” value ([5]; K^+ 140 mM) is reported as 0.52%. The “quantum yield (η)” value ([5]; K^+ 1400 mM) was 5.6%, the “quantum yield (η)” value ([5]; free form, no K^+) was 0.11% and the “fluorescence intensity increase upon addition of K^+” value ([6]; K^+ 140 mM) was “ca. 4 fold”. For the same compound, the “fluorescence intensity increase upon addition of K^+” value ([6]; K^+ 1400 mM) was about 50 fold and the viable cells (U87MG cells [4]; human, 2 h) was “more than 97%”.
For CC(C)NCC(O)c1ccc(O)c(O)c1 (stereo not shown) [isoproterenol], the “increase of average fluorescence intensity of cells after treatment” value (U87MG cells [7]) was 33%.
For CO[C@@H]1C[C@@H](C[C@H]2CC[C@H](C)[C@H]([C@@H](C)C(=O)O)O2)O[C@]2(O[C@](C)([C@H]3CC[C@@](C)([C@@H]4O[C@@H]([C@H]5O[C@@](O)(CO)[C@H](C)C[C@@H]5C)C[C@@H]4C)O3)C[C@H]2C)[C@@H]1C [nigericin], the “K^+ efflux, decrease of 1(a) fluorescence” value (U87MG cells [8]) was “not an efficient K^+ efflux stimulator”, the “fluorescence intensity after stabilization, below that before stimulation” value (U87MG cells [9]; efflux stabilized after 15 minutes) was “about 25%” and the “average fluorescence increase at peak of potassium influx” value (U87MG cells [9]; peak after 3 minutes, 2(a) 4 μM) was 370%. For the same compound, the “K^+ efflux, decrease of 1(a) fluorescence” value (CP-A cells [10]) was “not an efficient K^+ efflux stimulator”.
In the case of lysozyme, the “K^+ efflux from bacteria over time” value (B. subtilis) is reported as “K^+ efflux was very fast, within the first 10 minutes” and the “K^+ efflux from bacteria over time” value (E. coli) is reported as “K^+ efflux increased slowly over time”.
